Assay results taken from the NIST ThermoML archive (doi:10.1016/j.jct.2011.08.016).

Test: xn = mol fraction of the nth substance listed
Conditions: Liquid, Vibrating tube method

CCCCCCCCCC [decane] + CCCCCCCC
Conditions	mass density [kg/m3]
323.15 K, 13000 kPa, x2 = 0.7736	698.56
323.15 K, 13000 kPa, x2 = 0.9623	692.26
323.15 K, 14000 kPa, x2 = 0.5314	706.56
323.15 K, 14000 kPa, x2 = 0.7736	699.43
323.15 K, 14000 kPa, x2 = 0.9623	693.16
323.15 K, 15000 kPa, x2 = 0.5314	707.39
323.15 K, 15000 kPa, x2 = 0.7736	700.3
323.15 K, 15000 kPa, x2 = 0.9623	694.06
323.15 K, 16000 kPa, x2 = 0.5314	708.22
323.15 K, 16000 kPa, x2 = 0.7736	701.16
323.15 K, 16000 kPa, x2 = 0.9623	694.94
323.15 K, 17000 kPa, x2 = 0.5314	709.02
323.15 K, 17000 kPa, x2 = 0.7736	702
323.15 K, 17000 kPa, x2 = 0.9623	695.8
323.15 K, 18000 kPa, x2 = 0.5314	709.85
323.15 K, 18000 kPa, x2 = 0.7736	702.81
323.15 K, 18000 kPa, x2 = 0.9623	696.65
323.15 K, 19000 kPa, x2 = 0.5314	710.62
323.15 K, 19000 kPa, x2 = 0.7736	703.6
323.15 K, 19000 kPa, x2 = 0.9623	697.48
323.15 K, 20000 kPa, x2 = 0.5314	711.38
323.15 K, 20000 kPa, x2 = 0.7736	704.4
323.15 K, 20000 kPa, x2 = 0.9623	698.3
323.15 K, 21000 kPa, x2 = 0.5314	712.12
323.15 K, 21000 kPa, x2 = 0.7736	705.18
323.15 K, 21000 kPa, x2 = 0.9623	699.1
323.15 K, 22000 kPa, x2 = 0.5314	712.85
323.15 K, 22000 kPa, x2 = 0.7736	705.95
323.15 K, 22000 kPa, x2 = 0.9623	699.83
323.15 K, 23000 kPa, x2 = 0.5314	713.54
323.15 K, 23000 kPa, x2 = 0.7736	706.68
323.15 K, 23000 kPa, x2 = 0.9623	700.57
323.15 K, 24000 kPa, x2 = 0.5314	714.24
323.15 K, 24000 kPa, x2 = 0.7736	707.39
323.15 K, 24000 kPa, x2 = 0.9623	701.31
323.15 K, 25000 kPa, x2 = 0.5314	714.88
323.15 K, 25000 kPa, x2 = 0.7736	708.08
323.15 K, 25000 kPa, x2 = 0.9623	702
323.19 K, 1000 kPa, x2 = 0.0616	706.61
323.19 K, 2000 kPa, x2 = 0.0616	707.46
323.19 K, 3000 kPa, x2 = 0.0616	708.43
323.19 K, 4000 kPa, x2 = 0.0616	709.27
323.19 K, 5000 kPa, x2 = 0.0616	710.19
323.19 K, 6000 kPa, x2 = 0.0616	711.06
323.19 K, 7000 kPa, x2 = 0.0616	711.94
323.19 K, 8000 kPa, x2 = 0.0616	712.81
323.19 K, 9000 kPa, x2 = 0.0616	713.68
323.19 K, 10000 kPa, x2 = 0.0616	714.53
323.19 K, 10990 kPa, x2 = 0.0616	715.36
323.19 K, 12000 kPa, x2 = 0.0616	716.18
323.19 K, 13000 kPa, x2 = 0.0616	716.99
323.19 K, 14000 kPa, x2 = 0.0616	717.79
323.19 K, 15000 kPa, x2 = 0.0616	718.57
323.19 K, 16000 kPa, x2 = 0.0616	719.34
323.19 K, 17000 kPa, x2 = 0.0616	720.12
323.19 K, 18000 kPa, x2 = 0.0616	720.9
323.19 K, 19000 kPa, x2 = 0.0616	721.64
323.19 K, 20000 kPa, x2 = 0.0616	722.37
323.19 K, 21000 kPa, x2 = 0.0616	723.09
323.19 K, 22000 kPa, x2 = 0.0616	723.78
323.19 K, 23000 kPa, x2 = 0.0616	724.44
323.19 K, 24000 kPa, x2 = 0.0616	725.08
323.19 K, 25000 kPa, x2 = 0.0616	725.73
333.12 K, 1000 kPa, x2 = 0.0616	698.91
333.12 K, 1000 kPa, x2 = 0.2801	693.73
333.12 K, 2000 kPa, x2 = 0.0616	699.91
333.12 K, 2000 kPa, x2 = 0.2801	694.68
333.12 K, 3000 kPa, x2 = 0.0616	700.87
333.12 K, 3000 kPa, x2 = 0.2801	695.65
333.12 K, 4000 kPa, x2 = 0.0616	701.83
333.12 K, 4000 kPa, x2 = 0.2801	696.63
333.12 K, 5000 kPa, x2 = 0.0616	702.77
333.12 K, 5000 kPa, x2 = 0.2801	697.61
333.12 K, 6000 kPa, x2 = 0.0616	703.69
333.12 K, 6000 kPa, x2 = 0.2801	698.55
333.12 K, 7000 kPa, x2 = 0.0616	704.67
333.12 K, 7000 kPa, x2 = 0.2801	699.5
333.12 K, 8000 kPa, x2 = 0.0616	705.56
333.12 K, 8000 kPa, x2 = 0.2801	700.43
333.12 K, 9000 kPa, x2 = 0.0616	706.45
333.12 K, 9000 kPa, x2 = 0.2801	701.36
333.12 K, 10000 kPa, x2 = 0.0616	707.38
333.12 K, 10000 kPa, x2 = 0.2801	702.27
333.12 K, 10990 kPa, x2 = 0.0616	708.26
333.12 K, 10990 kPa, x2 = 0.2801	703.19
333.12 K, 12000 kPa, x2 = 0.0616	709.09
333.12 K, 12000 kPa, x2 = 0.2801	704.1
333.12 K, 13000 kPa, x2 = 0.0616	709.96
333.12 K, 13000 kPa, x2 = 0.2801	704.98
333.12 K, 14000 kPa, x2 = 0.0616	710.8
333.12 K, 14000 kPa, x2 = 0.2801	705.81
333.12 K, 15000 kPa, x2 = 0.0616	711.63
333.12 K, 15000 kPa, x2 = 0.2801	706.72
333.12 K, 16000 kPa, x2 = 0.0616	712.43
